# Laboratory results published in patent US4360595A, “Fermentation process for producing anandimycin” (Bristol-Myers Company, priority 1981, dated 1982).
# “Also recorded” adds a separate entry of the source.
# How the values were obtained:
# E. coli 15119 = assay: in vitro MIC, standard tube dilution procedure; assay type: cell-based; settings: Escherichia coli; E. coli 15119; read-out: Minimum Inhibitory Concentration
# Protocol: (§1) The in vitro minimum inhibitory concentrations (MIC) of anandimycin were determined against a variety of microorganisms using the standard tube dilution procedure.
# E. coli 20341-1 = assay: in vitro MIC, standard tube dilution procedure; assay type: cell-based; settings: Escherichia coli, 203411; E. coli 20341-1; read-out: Minimum Inhibitory Concentration
# Protocol: as §1
# Ent. cloacae 9659 = assay: in vitro MIC, standard tube dilution procedure; assay type: cell-based; settings: Enterobacter cloacae; Ent. cloacae 9659; read-out: Minimum Inhibitory Concentration
# Protocol: as §1
# K. pneumoniae 15130 = assay: in vitro MIC, standard tube dilution procedure; assay type: cell-based; settings: Klebsiella pneumoniae; K. pneumoniae 15130; read-out: Minimum Inhibitory Concentration
# Protocol: as §1
# Pr. mirabilis 9900 = assay: in vitro MIC, standard tube dilution procedure; assay type: cell-based; settings: Proteus mirabilis; Pr. mirabilis 9900; read-out: Minimum Inhibitory Concentration
# Protocol: as §1
# Pr. vulgaris 21559 = assay: in vitro MIC, standard tube dilution procedure; assay type: cell-based; settings: Proteus vulgaris; Pr. vulgaris 21559; read-out: Minimum Inhibitory Concentration
# Protocol: as §1
# Ps. aeruginosa 9843A = assay: in vitro MIC, standard tube dilution procedure; assay type: cell-based; settings: Pseudomonas aeruginosa; Ps. aeruginosa 9843A; read-out: Minimum Inhibitory Concentration
# Protocol: as §1
# Ser. marcescens 20019 = assay: in vitro MIC, standard tube dilution procedure; assay type: cell-based; settings: Serratia marcescens; Ser. marcescens 20019; read-out: Minimum Inhibitory Concentration
# Protocol: as §1
# [1] = tested on: Staph. aureus (penicillin-resistant) 9606; assay: in vitro MIC, standard tube dilution procedure; assay type: cell-based; settings: Staphylococcus aureus, read-out: Minimum Inhibitory Concentration
# Protocol: as §1
# Staph. aureus 9587 = assay: in vitro MIC, standard tube dilution procedure; assay type: cell-based; settings: Staphylococcus aureus; Staph. aureus 9587; read-out: Minimum Inhibitory Concentration
# Protocol: as §1
# Str. faecalis 20,588 = assay: in vitro MIC, standard tube dilution procedure; assay type: cell-based; settings: Enterococcus faecalis; Str. faecalis 20,588; read-out: Minimum Inhibitory Concentration
# Protocol: as §1
# Str. pneumoniae 9585 = assay: in vitro MIC, standard tube dilution procedure; assay type: cell-based; settings: Streptococcus pneumoniae; Str. pneumoniae 9585; read-out: Minimum Inhibitory Concentration
# Protocol: as §1
# Str. pyogenes 9604 = assay: in vitro MIC, standard tube dilution procedure; assay type: cell-based; settings: Streptococcus pyogenes; Str. pyogenes 9604; read-out: Minimum Inhibitory Concentration
# Protocol: as §1
# [2] = solubility in organic solvents (trituration, chromatography); assay type: physicochemical; settings: solvents for (preparative) chromatography
# Description: The solids obtained from extraction of the whole broth are next washed with diethyl ether to remove any lard oils and antifoams used in the fermentation. […] To remedy this problem a simple organic solvent trituration scheme was developed which effects a gross separation of the yellow pigments and another class of antitumor agents produced by strain C-22,437 (rachelmycin) from anandimycin on the basis of differential solubility. […] The first step involves trituration of the extraction solids with acetone. The resulting filtrate contains another antitumor substance which is active in the lysogenic bacteria induction assay and the P388 mouse tumor system (rachelmycin). The insoluble solid from the acetone trituration contains the yellow pigments along with a complex of anandimycin and another similar compound. The second phase of the process involves trituration with a ternary organic solvent system 40:30:30(^v/v) chloroform:methanol:tetrahydrofuran. The soluble fraction contains the yellow pigments. […] Substantially pure anandimycin is separated from the enriched mixture using high pressure liquid chromatography on silica gel as described in more detail below.
# The analytical solvent system routinely used is hexane:ethyl acetate:isopropanol (30:70:3^v /v) along with 0.1 to 0.4 part water depending on the relative activity state of the silica gel surface in the column being used. If tailing effects are observed, then typically one increases the water content of the solvent system within the 0.1-0.4 part range to improve peak symmetry, thereby permitting a more quantitative analysis.
# The preparative solvent system is ethyl acetate:isopropanol:water (87:13:0.5^v /v). […] A shave-recycle method involves increasing the effective silica gel column length through the employment of continuous multiple pass chromatography of the anandimycin-component II band. […] Initial chromatography gave anandimycin enriched to 70-85% purity. Accumulated solids are rechromatographed to yield material of >90% purity. […]
# [3] = biological activity (in words)
# E. coli = assay: lysogenic bacterial induction (ILB) assay; assay type: cell-based
# Description: Analytical high pressure liquid chromatography, Bacillus subtilis zone of inhibition, lysogenic bacterial induction and P388 mouse tumor assays are used throughout the above-described separation processes to monitor relative levels of anandimycin and co-produced substances.
# P-388 leukemia = assay: transplantable mouse tumor P-388 leukemia; assay type: in vivo, mouse (CDF1 female mice); settings: filtrate of acetone trituration
# Protocol: Anandimycin was also tested against the transplantable mouse tumor P-388 leukemia. The methodology used generally followed the protocols of the National Cancer Institute (Cancer Chemotherapy Rep., Part 3, 3, 1-103 (1972). The essential experimental details are given at the bottom of the following table. Two different dose regimens are tested: single dose on day 1 and three doses given on days 1, 5 and 9. The optimal dose was 64 mg/kg. single dose.
# Tumor inoculum: 10^6 ascites cells implanted
# Host: CDF1 .female. mice
# Evaluation: MST = median survival
# Effect: % T/C = (MST treated/MST control) ×
# Criteria: % T/C ≥ 125 considered significant antitumor
# Tox: […] 4/6 mice alive on day 5
# AWC = average weight gain (treatedcontrol) in grams (on day 4)
# [4] = antimicrobial / antibiotic activity (in words); assay type: cell-based
Compound,MIC (E. coli 15119),MIC (E. coli 20341-1),MIC (Ent. cloacae 9659),MIC (K. pneumoniae 15130),MIC (Pr. mirabilis 9900),MIC (Pr. vulgaris 21559),MIC (Ps. aeruginosa 9843A),MIC (Ser. marcescens 20019),MIC [1],MIC (Staph. aureus 9587),"MIC (Str. faecalis 20,588)",MIC (Str. pneumoniae 9585),MIC (Str. pyogenes 9604),solubility in chromatography solvents [2],biological activity [3],lysogenic bacterial induction activity (E. coli),activity in the P388 mouse tumor system (P-388 leukemia),antimicrobial / antibiotic activity [4]
COc1cc2c(oc(=O)c3cc(O)cc(OC)c32)c2c(C3OC(C(C)O)C(O)C3O)ccc(O)c12 (stereo not drawn) [Component II],> 63 µg/mL,> 63 µg/mL,> 63 µg/mL,> 63 µg/mL,> 63 µg/mL,> 63 µg/mL,> 63 µg/mL,> 63 µg/mL,0.5 µg/mL,0.13 µg/mL,0.13 µg/mL,0.25 µg/mL,0.5 µg/mL,poor solubility,biologically inactive,–,–,–
"COc1c(O)c2c(c3cc(C(=O)N4CCc5c4c(O)c(OC)c4[nH]c(C(=O)N6CC7CC78C6=CC(=O)c6[nH]cc(C)c68)cc54)[nH]c13)CCN2C(N)=O (stereo not drawn) [rachelmycin, reference compound]",–,–,–,–,–,–,–,–,–,–,–,–,–,–,–,active; also recorded: possesses both antibiotic and lysogenic bacterial induction activity,active,possesses both antibiotic and lysogenic bacterial induction activity
